Assay results taken from publication PMC4769034 (Journal of medicinal chemistry, 2015).
Values after ≈ are worked out from the molar mass of the structure shown.

Columns and labels:
[1] = no reference given; cited from earlier work
[2] = cited from earlier work
[3] = test system: Middle East respiratory syndrome coronavirus (MERS-Cov); settings: cited from earlier work
[4] = test system: pancreatic ductal adenocarcinoma (PDA) cells; settings: cited from earlier work
[5] = test system: hERG; settings: cited from earlier work
[6] = test system: CYP450 enzymes; settings: cited from earlier work
[7] = test system: plasma leptin; settings: 50 mg/kg by oral gavage for 3 weeks; cited from earlier work
[8] = cited from earlier work; remark: listed apart in the source
[9] = test system: MIA PaCa-2 cells; settings: 10 mg/kg via i.p. injection for 3 weeks; cited from earlier work
[10] = test system: rickettsial infection; settings: mouse, in vivo; cited from earlier work
[11] = test system: PDEs; settings: cited from earlier work
[12] = test system: PKA; settings: cited from earlier work
[13] = Solubility in water by HPLC analysis
[14] = Solubility in ethanol by HPLC analysis; settings: vs compound 1

Row | Structure (SMILES) | membrane permeability [1] | toxicity to animals [2] | MERS-CoV viral yields [3] | PDA cell migration and invasion [4] | effect on PDA cell proliferation and viability [4] | inhibitory activity toward hERG [5] | inhibitory activity toward CYP450 enzymes [6] | plasma leptin [7] | bioavailability [8] | metastasis to the liver [9] | survival after rickettsial infection [10] | inhibitory effects on PDEs [11] | effect toward PKA [12] | fold improvement of solubility in water in comparison with 1 ([13]; vs compound 1) | solubility at 24 h ([13]; water) | fold improvement of solubility in ethanol in comparison with 1 [14]
1 | CC(C)(C)c1cc(C(=O)/C(C#N)=N/Nc2cccc(Cl)c2)no1 [Compound 1, 2-(5-tert-butylisoxazol-3-yl)-N′-(3-chlorophenyl)-2-oxoacetohy-drazonoyl cyanide] | good membrane permeability | low toxicity | significantly reduce viral yields | significant decrease | no obvious effect | very weak inhibitory activities | very weak inhibitory activities | significantly reduces plasma leptin | excellent bioavailability | significantly decrease metastasis to the liver | dramatically improved survival | no significant inhibitory effects | no effect | – | – | –
2 | CC(C)(C)c1cc(C(=O)/C(C#N)=N/Nc2cc(C(F)(F)F)cc(C(F)(F)F)c2)no1 [Compound 25, N′-(3,5-Bis(trifluoromethyl)phenyl)-2-(5-tert-butylisoxazol-3-yl)-2-oxoacetohydrazonoyl Cyanide] | – | – | – | – | – | – | – | – | – | – | – | – | – | approximately 70 fold | 418 ± 17.3 µg/mL (≈ 968 µM) | ~10 fold
